What was measured:
[1] = biological target: Leucine-rich repeat serine/threonine-protein kinase 2 (Homo sapiens) (UniProt Q5S007); experiment: Inhibition of LRRK2 in human PBMC using LRRKtide peptide as substrate assessed as Ser935 dephosphorylation preincubated with compound for 15 mins followed by substrate addition and measured after 90 mins in presence of ATP by TR-FRET assay; type: cell-based; settings: time 105.0 min
[2] = Total clearance in Wistar-Han rat at 2 mg/kg, iv measured after 24 hrs by LC-MS/MS analysis; type: ADME, organism-based; settings: in vivo
[3] = Intrinsic clearance in Wistar-Han rat at 2 mg/kg, iv measured after 24 hrs by LC-MS/MS analysis; type: ADME, organism-based; settings: in vivo
[4] = MRT in Wistar-Han rat at 2 mg/kg, iv measured after 24 hrs by LC-MS/MS analysis; type: ADME, organism-based; settings: in vivo
[5] = Oral bioavailability in Wistar-Han rat at 5 mg/kg measured after 24 hrs by LC-MS/MS analysis; type: ADME, organism-based; settings: in vivo
[6] = Drug metabolism in rat assessed as amide hydrolysis mediated metabolite formation by MetID analysis; type: ADME
[7] = Drug metabolism in rat assessed as oxidative metabolism of piperazine-THF alcohol lysine region fragment by MetID analysis; type: ADME
[8] = Drug metabolism in dog assessed as oxidative metabolism of piperazine-THF alcohol lysine region fragment by MetID analysis; type: ADME, Canis lupus familiaris
[9] = Drug metabolism in dog assessed as amide hydrolysis mediated metabolite formation by MetID analysis; type: ADME, Canis lupus familiaris
[10] = Mutagenicity in Salmonella typhimurium TA1535 at 30 to 5000 ug/plate incubated for 48 hrs in absence of Wistar-Han rat S9 fraction by Ames test; type: toxicity; settings: salmonella enterica subsp. enterica serovar typhimurium, s9, 48 h
[11] = Mutagenicity in Salmonella typhimurium TA98 at 30 to 5000 ug/plate incubated for 48 hrs in absence of Wistar-Han rat S9 fraction by Ames test; type: toxicity; settings: salmonella enterica subsp. enterica serovar typhimurium, s9, 48 h
[12] = Mutagenicity in Salmonella typhimurium TA100 at 30 to 5000 ug/plate incubated for 48 hrs in absence of Wistar-Han rat S9 fraction by Ames test; type: toxicity; settings: salmonella enterica subsp. enterica serovar typhimurium, s9, 48 h
[13] = Mutagenicity in Salmonella typhimurium TA1535 at 30 to 5000 ug/plate incubated for 48 hrs in presence of Wistar-Han rat S9 fraction by Ames test; type: toxicity, subcellular; settings: salmonella enterica subsp. enterica serovar typhimurium, s9, 48 h
[14] = Mutagenicity in Salmonella typhimurium TA98 at 30 to 5000 ug/plate incubated for 48 hrs in presence of Wistar-Han rat S9 fraction by Ames test; type: toxicity, subcellular; settings: salmonella enterica subsp. enterica serovar typhimurium, s9, 48 h
[15] = Mutagenicity in Salmonella typhimurium TA100 at 30 to 5000 ug/plate incubated for 48 hrs in presence of Wistar-Han rat S9 fraction by Ames test; type: toxicity, subcellular; settings: salmonella enterica subsp. enterica serovar typhimurium, s9, 48 h
[16] = Oral bioavailability in Wistar-Han rat at 10 mg/kg measured after 24 hrs by LC-MS/MS analysis; type: ADME, organism-based; settings: in vivo
[17] = Total clearance in Beagle dog at 0.05 mg/kg, iv administered as cassette dose by LC-MS/MS analysis; type: ADME, organism-based, Canis lupus familiaris; settings: in vivo
[18] = Intrinsic clearance in Beagle dog at 0.05 mg/kg, iv administered as cassette dose by LC-MS/MS analysis; type: ADME, organism-based, Canis lupus familiaris; settings: in vivo
[19] = MRT in Beagle dog at 0.05 mg/kg, iv administered as cassette dose by LC-MS/MS analysis; type: ADME, organism-based, Canis lupus familiaris; settings: in vivo
[20] = biological target: Leucine-rich repeat serine/threonine-protein kinase 2 (Homo sapiens, UniProt Q5S007, G2019S); experiment: Inhibition of recombinant N-terminal GST-fused LRRK2 […] mutant (970 to 2527 residues) (unknown origin) using LRRKtide peptide as substrate assessed as inhibition of substrate phosphorylation preincubated with compound for 15 mins followed by substrate addition and measured after 90 mins in presence of ATP by TR-FRET assay
[21] = Total clearance in Wistar-Han rat at 0.1 mg/kg, iv administered as cassette dose by LC-MS/MS analysis; type: ADME, organism-based; settings: in vivo
[22] = Intrinsic clearance in Wistar-Han rat at 0.1 mg/kg, iv administered as cassette dose by LC-MS/MS analysis; type: ADME, organism-based; settings: in vivo
[23] = MRT in Wistar-Han rat at 0.1 mg/kg, iv administered as cassette dose by LC-MS/MS analysis; type: ADME, organism-based; settings: in vivo
[24] = system: rat Mdr1a P-gp; experiment: Apparent permeability across apical to basolateral side in LLC-PK1 cells transfected with rat Mdr1a P-gp incubated for 3 hrs by LC-MS/MS analysis; settings: pig
[25] = system: rat Mdrl1 P-gp; experiment: Efflux ratio of apparent permeability across basolateral to apical over apical to basolateral side in MDCK cells transfected with rat Mdrl1 P-gp incubated for 3 hrs by LC-MS/MS analysis; settings: dog, MDCK-MDR1
[26] = biological target: Voltage-gated inwardly rectifying potassium channel KCNH2 (Homo sapiens, UniProt Q12809); experiment: Inhibition of hERG expressed in CHO cells by QPatch voltage clamp assay
[27] = Unbound brain-to-plasma concentration ratio in iv dosed Wistar-Han rat administered as cassette dose by LC-MS/MS analysis; type: ADME, organism-based; settings: read-out: K(p,uu,brain)
[28] = system: mouse BCRP; experiment: Efflux ratio of apparent permeability across basolateral to apical over apical to basolateral side in MDCK-II cells transfected with mouse BCRP incubated for 3 hrs by LC-MS/MS analysis; settings: dog
[29] = biological target: T1, Serine/threonine-protein kinase BRSK1 (Homo sapiens, UniProt Q8TDC3); experiment: Inhibition of BRSK1 (unknown origin)
T1 sequence (Q8TDC3 whole entry): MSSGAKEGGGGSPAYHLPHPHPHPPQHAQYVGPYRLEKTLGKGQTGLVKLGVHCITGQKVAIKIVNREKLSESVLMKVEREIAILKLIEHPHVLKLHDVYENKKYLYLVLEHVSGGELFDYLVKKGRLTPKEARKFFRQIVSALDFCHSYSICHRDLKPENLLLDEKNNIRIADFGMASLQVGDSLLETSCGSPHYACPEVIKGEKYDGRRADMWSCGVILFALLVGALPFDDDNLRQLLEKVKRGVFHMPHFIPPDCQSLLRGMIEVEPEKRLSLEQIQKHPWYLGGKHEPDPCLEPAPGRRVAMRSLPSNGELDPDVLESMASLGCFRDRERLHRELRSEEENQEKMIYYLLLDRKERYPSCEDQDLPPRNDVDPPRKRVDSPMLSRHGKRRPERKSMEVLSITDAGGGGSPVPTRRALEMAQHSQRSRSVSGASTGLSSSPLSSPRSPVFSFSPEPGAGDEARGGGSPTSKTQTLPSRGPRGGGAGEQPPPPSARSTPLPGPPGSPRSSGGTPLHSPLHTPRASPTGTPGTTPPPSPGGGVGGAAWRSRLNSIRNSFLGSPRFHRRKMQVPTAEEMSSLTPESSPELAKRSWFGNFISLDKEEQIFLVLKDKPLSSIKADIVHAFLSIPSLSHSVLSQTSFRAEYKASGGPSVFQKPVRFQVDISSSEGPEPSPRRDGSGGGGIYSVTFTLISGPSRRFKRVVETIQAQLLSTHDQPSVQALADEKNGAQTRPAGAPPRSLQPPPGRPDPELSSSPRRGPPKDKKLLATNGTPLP

[30] = Lipophilicity, logD of compound at pH 7 by HT-HPLC/DAD analysis; type: physicochemical; settings: buffer

Leucine-rich repeat serine/threonine-protein kinase 2 (Homo sapiens), sequence (Q5S007 whole entry): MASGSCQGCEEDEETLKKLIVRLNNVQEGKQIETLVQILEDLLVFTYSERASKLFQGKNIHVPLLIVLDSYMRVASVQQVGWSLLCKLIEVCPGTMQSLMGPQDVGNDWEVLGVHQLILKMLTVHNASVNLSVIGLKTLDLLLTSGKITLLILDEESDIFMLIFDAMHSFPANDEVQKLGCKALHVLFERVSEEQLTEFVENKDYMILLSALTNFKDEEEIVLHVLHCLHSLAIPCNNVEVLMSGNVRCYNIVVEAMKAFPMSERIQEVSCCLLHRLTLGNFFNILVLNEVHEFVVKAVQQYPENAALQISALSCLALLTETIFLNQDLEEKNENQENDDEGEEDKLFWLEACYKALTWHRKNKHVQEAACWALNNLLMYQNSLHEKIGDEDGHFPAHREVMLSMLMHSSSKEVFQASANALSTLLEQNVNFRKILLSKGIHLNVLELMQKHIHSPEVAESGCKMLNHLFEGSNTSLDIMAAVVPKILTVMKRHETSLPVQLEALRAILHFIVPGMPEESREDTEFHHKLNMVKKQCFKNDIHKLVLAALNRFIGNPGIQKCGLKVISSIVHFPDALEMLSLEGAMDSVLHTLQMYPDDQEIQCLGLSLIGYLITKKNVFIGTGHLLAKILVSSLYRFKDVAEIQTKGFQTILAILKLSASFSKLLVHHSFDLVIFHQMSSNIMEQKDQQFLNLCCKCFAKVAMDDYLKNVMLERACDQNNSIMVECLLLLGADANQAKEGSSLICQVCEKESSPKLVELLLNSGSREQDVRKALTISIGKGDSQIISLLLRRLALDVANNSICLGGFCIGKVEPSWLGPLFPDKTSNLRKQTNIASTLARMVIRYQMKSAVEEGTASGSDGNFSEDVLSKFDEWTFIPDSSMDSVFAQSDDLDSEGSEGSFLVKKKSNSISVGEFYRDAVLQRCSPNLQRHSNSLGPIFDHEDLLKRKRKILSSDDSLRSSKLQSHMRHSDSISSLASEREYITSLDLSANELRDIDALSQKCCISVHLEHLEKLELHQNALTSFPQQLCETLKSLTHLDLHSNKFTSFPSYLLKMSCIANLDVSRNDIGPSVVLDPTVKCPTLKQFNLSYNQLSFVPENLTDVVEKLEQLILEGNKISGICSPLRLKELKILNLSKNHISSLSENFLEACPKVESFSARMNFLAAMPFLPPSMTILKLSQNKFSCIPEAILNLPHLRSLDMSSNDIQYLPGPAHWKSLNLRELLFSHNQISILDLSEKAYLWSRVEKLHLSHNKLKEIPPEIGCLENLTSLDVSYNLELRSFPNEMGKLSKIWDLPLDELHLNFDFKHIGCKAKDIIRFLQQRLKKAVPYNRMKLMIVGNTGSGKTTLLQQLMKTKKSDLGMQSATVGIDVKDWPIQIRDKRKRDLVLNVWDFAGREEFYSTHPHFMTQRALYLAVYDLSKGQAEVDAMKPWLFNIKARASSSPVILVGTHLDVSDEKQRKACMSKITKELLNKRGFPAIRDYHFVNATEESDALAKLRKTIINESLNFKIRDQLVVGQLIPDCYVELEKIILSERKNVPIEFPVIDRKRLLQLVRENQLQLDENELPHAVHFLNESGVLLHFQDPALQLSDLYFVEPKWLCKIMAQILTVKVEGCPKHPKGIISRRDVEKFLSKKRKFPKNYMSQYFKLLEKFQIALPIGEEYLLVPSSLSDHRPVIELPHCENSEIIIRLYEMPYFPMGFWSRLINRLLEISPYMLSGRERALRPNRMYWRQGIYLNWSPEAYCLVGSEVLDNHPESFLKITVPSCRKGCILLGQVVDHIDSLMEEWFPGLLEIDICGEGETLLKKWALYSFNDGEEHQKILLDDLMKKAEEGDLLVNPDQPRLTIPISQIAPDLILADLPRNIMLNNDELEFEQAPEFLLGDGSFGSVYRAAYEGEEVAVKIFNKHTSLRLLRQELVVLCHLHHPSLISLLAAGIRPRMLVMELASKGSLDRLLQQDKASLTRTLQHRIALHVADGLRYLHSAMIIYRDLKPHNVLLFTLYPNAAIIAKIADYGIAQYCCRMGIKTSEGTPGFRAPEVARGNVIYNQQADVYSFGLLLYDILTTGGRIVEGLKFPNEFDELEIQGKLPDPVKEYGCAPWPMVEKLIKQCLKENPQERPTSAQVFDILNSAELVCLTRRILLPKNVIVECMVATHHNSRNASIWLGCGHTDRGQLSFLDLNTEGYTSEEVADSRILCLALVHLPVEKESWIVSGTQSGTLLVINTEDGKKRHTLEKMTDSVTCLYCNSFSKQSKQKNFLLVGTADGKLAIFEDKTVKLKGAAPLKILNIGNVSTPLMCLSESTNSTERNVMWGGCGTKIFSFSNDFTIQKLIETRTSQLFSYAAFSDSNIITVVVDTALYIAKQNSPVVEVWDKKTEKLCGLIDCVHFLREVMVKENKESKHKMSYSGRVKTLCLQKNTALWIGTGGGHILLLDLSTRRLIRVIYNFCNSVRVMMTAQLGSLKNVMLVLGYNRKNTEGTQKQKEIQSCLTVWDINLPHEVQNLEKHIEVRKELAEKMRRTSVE
Leucine-rich repeat serine/threonine-protein kinase 2, sequence (Q5S007 whole entry G2019S, the tested form may be a part): as the sequence (Q5S007 whole entry) above, with G2019S counted along it
Voltage-gated inwardly rectifying potassium channel KCNH2, sequence (Q12809 whole entry): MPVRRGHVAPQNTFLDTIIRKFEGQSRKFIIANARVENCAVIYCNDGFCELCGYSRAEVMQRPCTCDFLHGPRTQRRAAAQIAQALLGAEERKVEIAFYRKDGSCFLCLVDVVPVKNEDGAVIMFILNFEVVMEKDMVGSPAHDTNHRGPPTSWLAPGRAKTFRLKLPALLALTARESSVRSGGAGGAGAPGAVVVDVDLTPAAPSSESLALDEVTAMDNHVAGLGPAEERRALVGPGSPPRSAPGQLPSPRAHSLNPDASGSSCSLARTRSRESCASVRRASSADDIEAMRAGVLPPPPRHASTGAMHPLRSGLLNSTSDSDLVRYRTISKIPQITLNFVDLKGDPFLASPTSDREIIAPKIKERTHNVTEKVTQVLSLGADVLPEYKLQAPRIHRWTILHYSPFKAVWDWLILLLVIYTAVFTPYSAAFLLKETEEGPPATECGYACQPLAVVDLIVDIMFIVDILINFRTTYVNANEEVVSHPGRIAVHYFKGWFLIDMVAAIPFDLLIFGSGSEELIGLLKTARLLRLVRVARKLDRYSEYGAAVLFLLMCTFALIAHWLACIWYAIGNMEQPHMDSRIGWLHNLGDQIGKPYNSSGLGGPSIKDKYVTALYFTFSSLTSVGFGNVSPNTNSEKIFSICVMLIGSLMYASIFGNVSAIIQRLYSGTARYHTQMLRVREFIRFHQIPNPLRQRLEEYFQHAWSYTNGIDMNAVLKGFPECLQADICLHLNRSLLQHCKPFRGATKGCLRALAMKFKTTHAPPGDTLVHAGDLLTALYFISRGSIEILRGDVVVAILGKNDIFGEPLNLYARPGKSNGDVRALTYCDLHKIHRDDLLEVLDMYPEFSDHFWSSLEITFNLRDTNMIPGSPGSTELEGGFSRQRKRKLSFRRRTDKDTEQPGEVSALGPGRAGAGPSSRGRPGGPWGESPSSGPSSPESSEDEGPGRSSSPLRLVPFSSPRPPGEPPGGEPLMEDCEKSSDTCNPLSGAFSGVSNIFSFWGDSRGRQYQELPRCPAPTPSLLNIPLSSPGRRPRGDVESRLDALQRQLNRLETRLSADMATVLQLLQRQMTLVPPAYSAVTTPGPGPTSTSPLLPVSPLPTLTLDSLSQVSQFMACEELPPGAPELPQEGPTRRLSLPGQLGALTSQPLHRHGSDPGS

Compound: C[C@@]1(N2CCC(c3cc4cc(NC(=O)[C@H]5C[C@@H]5c5ccccn5)ncc4cc3Cl)CC2)COC[C@@H]1O
- fIC50 [1]: 0.2 nM
- clearance [2]: 13 mL/min/kg
- CL [3]: 341 mL/min/kg
- MRT [4]: 5.6 h
- bioavailability [5]: 46%
- Drug metabolism [6]: Metabolite_Notdetected
- Drug metabolism [7]: Metabolite_Detected
- Drug metabolism [8]: Metabolite_Detected
- Drug metabolism [9]: Metabolite_Detected

Compound: C[C@@]1(N2CCC(c3cc4cc(N)ncc4cc3Cl)CC2)COC[C@@H]1O
- Activity [10]: Non-Toxic
- Activity [11]: Non-Toxic
- Activity [12]: Non-Toxic
- Activity [13]: Non-Toxic
- Activity [14]: Non-Toxic
- Activity [15]: Non-Toxic

Compound: C[C@@]1(N2CCC(c3cc4cc(NC(=O)[C@H]5CC56CCOCC6)ncc4cc3Cl)CC2)COC[C@@H]1O
- clearance [2]: 35 mL/min/kg
- CL [3]: 875 mL/min/kg
- MRT [4]: 2.7 h
- bioavailability [16]: 67%
- clearance [17]: 18 mL/min/kg
- CL [18]: 422 mL/min/kg
- MRT [19]: 12 h

Compound: Cn1cc([C@H]2C[C@@H]2C(=O)Nc2cc3cc(C4CCN([C@]5(C)COC[C@@H]5O)CC4)c(Cl)cc3cn2)cn1
- IC50 [20]: 0.5 nM
- fIC50 [1]: 0.28 nM
- clearance [21]: 17 mL/min/kg
- CL [22]: 302 mL/min/kg
- MRT [23]: 4.4 h
- Papp A→B at 3 h [24]: 29 ×10⁻⁶ cm/s
- efflux ratio at 3 h [25]: 12
- IC50 [26]: 9500 nM

Compound: Cn1ccc([C@H]2C[C@@H]2C(=O)Nc2cc3cc(C4CCN([C@]5(C)COC[C@@H]5O)CC4)c(Cl)cc3cn2)n1
- fIC50 [1]: 1.2 nM
- clearance [21]: 21 mL/min/kg
- CL [22]: 731 mL/min/kg
- MRT [23]: 2.6 h
- Kp uu [27]: 0.3

Compound: C[C@@]1(N2CCN(c3cc4cc(N)ncc4cc3Cl)CC2)COC[C@@H]1O
- Activity [10]: Non-Toxic
- Activity [11]: Non-Toxic
- Activity [12]: Non-Toxic
- Activity [13]: Non-Toxic
- Activity [14]: Non-Toxic
- Activity [15]: Non-Toxic

Compound: COC(C)(C)[C@@H]1C[C@H]1C(=O)Nc1cc2cc(C3CCN([C@]4(C)COC[C@@H]4O)CC3)c(Cl)cc2cn1
- clearance [21]: 41 mL/min/kg
- CL [22]: 840 mL/min/kg
- MRT [23]: 2.1 h
- Kp uu [27]: 0.3

Compound: CC(C)(O)[C@H]1C[C@H]1C(=O)Nc1cc2cc(C3CCN([C@]4(C)COC[C@@H]4O)CC3)c(Cl)cc2cn1
- IC50 [20]: < 0.08 nM
- clearance [21]: 22 mL/min/kg
- CL [22]: 276 mL/min/kg
- MRT [23]: 3.1 h
- Papp A→B at 3 h [24]: 33 ×10⁻⁶ cm/s
- efflux ratio at 3 h [25]: 9

Compound: CC1(N2CCC(c3cc4cc(NC(=O)C5CC5)ncc4cc3Cl)CC2)COC1
- IC50 [20]: 3 nM
- fIC50 [1]: 168 nM
- clearance [21]: 10 mL/min/kg
- CL [22]: 429 mL/min/kg
- MRT [23]: 3.3 h
- Papp A→B at 3 h [24]: 34 ×10⁻⁶ cm/s
- efflux ratio at 3 h [25]: 0.9
- efflux ratio at 3 h [28]: 1.1

Compound: C[C@@]1(N2CCC(c3cc4cc(NC(=O)C5CC5)ncc4cc3Cl)CC2)COC[C@@H]1O
- IC50 [20]: < 0.08 nM
- fIC50 [1]: 4.5 nM
- clearance [21]: 12 mL/min/kg
- CL [22]: 684 mL/min/kg
- MRT [23]: 3.2 h
- IC50 [29]: 43 nM

Compound: Cn1cc(C(=O)Nc2cc3cc(C4CCN([C@]5(C)COC[C@@H]5O)CC4)c(Cl)cc3cn2)cn1
- IC50 [20]: 0.8 nM
- fIC50 [1]: 112 nM

Compound: Cc1cc2cnc(NC(=O)C3CC34CC4)cc2cc1C1CCN([C@]2(C)COC[C@@H]2O)CC1 (some centres not stated)
- IC50 [20]: < 0.08 nM
- fIC50 [1]: 12 nM
- clearance [21]: 31 mL/min/kg
- CL [22]: 241 mL/min/kg
- MRT [23]: 3.2 h
- IC50 [26]: 4800 nM
- clearance [17]: 10 mL/min/kg
- CL [18]: 76 mL/min/kg
- MRT [19]: 9.8 h
- logD [30]: 3.6

— ChEMBL document CHEMBL5370643, “Discovery of MK-1468: A Potent, Kinome-Selective, Brain-Penetrant Amidoisoquinoline LRRK2 Inhibitor for the Potential Treatment of Parkinson's Disease” (J Med Chem, 2023)
